Experimental data as given in ChEMBL document CHEMBL5223082, “Alkyl-Aryl-Vancomycins: Multimodal Glycopeptides with Weak Dependence on the Bacterial Metabolic State” (J Med Chem, 2021).
Active and inactive are the calls of the source. The calls are words filed in the database; no cut-off is given here.

Legend:
[1] = test system: Enterococcus; experiment: Antibacterial activity against Vancomycin-resistant Enterococci NR30909 assessed as inhibition of bacterial growth incubated for 18 to 24 hrs by CLSI microbroth dilution method; assay type: functional; settings: time 18-24 hrs
[2] = test system: Enterococcus; experiment: Antibacterial activity against Vancomycin-resistant Enterococci ATCC 51559 assessed as inhibition of bacterial growth incubated for 18 to 24 hrs by CLSI microbroth dilution method; assay type: functional; settings: time 18-24 hrs
[3] = test system: Cell membrane; experiment: Induction of cytoplasmic membrane depolarization in Bacillus subtilis assessed as increase in fluorescence intensity at 10 uM measured for 35 to 40 mins by DiSC3(5) dye based fluorescence analysis; assay type: subcellular; settings: time 35-40 min
[4] = test system: Staphylococcus aureus; experiment: Antibacterial activity against Methicillin-resistant Staphylococcus aureus ATCC 33591 assessed as inhibition of bacterial growth preincubated compound with N,N'-diacetyl-L-Lys-D-Ala-D-Ala for 10 mins followed by incubation with bacterial culture for 18 to 24 hrs by CLSI microbroth dilution method; assay type: functional; settings: time 1090-1450 min
[5] = test system: Bacillus subtilis; experiment: Inhibition of cell wall biosynthesis in Bacillus subtilis 168 assessed as bubble-like formation on bacterial cell surface at PEC incubated for 15 mins by light microscopic analysis; assay type: functional, organism-based
[6] = test system: Staphylococcus aureus; experiment: Antibacterial activity against stationary phase of Methicillin-resistant Staphylococcus aureus ATCC 33591 assessed as log reduction in bacterial colonies at 9 uM incubated for 12 hrs in broth solution followed by incubation on agar plate for 48 hrs by spot plating method; assay type: functional; settings: time 60 hrs
[7] = test system: Staphylococcus aureus; experiment: Antibacterial activity against Methicillin-resistant Staphylococcus aureus ATCC 33591 persister cells assessed as log reduction in bacterial colonies at 4.5 uM incubated for 12 hrs in broth solution followed by incubation on agar plate for 48 hrs by spot plating method; assay type: functional; settings: time 60 hrs
[8] = test system: Staphylococcus aureus; experiment: Antibacterial activity against Methicillin-resistant Staphylococcus aureus ATCC 33591 assessed as log reduction in bacterial colonies at 10XMIC incubated for 1 hr in broth solution followed by plating on nutrient agar plate; assay type: functional
[9] = test system: Staphylococcus aureus; experiment: Antibacterial activity against stationary phase of Methicillin-resistant Staphylococcus aureus ATCC 33591 assessed as log reduction in bacterial colonies at 4.5 uM incubated for 12 hrs in broth solution followed by incubation on agar plate for 48 hrs by spot plating method; assay type: functional; settings: time 60 hrs
[10] = test system: Enterococcus; experiment: Bactericidal activity against Vancomycin-resistant Enterococci assessed as log reduction in bacterial colonies at 4XMIC incubated for 24 hrs in broth solution followed by culturing for 24 hrs on agar plate by spot plating method; assay type: functional; settings: time 48 hrs
[11] = biological target: T1, Septum site-determining protein MinD (Bacillus subtilis (strain 168)) (UniProt Q01464); experiment: Delocalization of GFP tagged-MinD in Bacillus subtilis 168 at PEC incubated for 15 mins by fluorescence microscopy
T1 sequence (whole entry): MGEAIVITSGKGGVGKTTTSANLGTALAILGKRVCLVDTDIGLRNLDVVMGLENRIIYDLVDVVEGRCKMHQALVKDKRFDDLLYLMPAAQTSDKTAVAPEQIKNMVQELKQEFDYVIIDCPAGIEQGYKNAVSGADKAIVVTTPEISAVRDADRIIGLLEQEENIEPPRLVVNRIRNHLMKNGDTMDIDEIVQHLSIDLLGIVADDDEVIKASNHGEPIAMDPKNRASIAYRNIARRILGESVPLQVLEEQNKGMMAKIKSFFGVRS

[12] = test system: Bacillus subtilis; experiment: Antibacterial activity against Bacillus subtilis 168 assessed as inhibition of bacterial growth incubated for 18 hrs by turbidity based analysis; assay type: functional
[13] = test system: Staphylococcus aureus; experiment: Bactericidal activity against methicillin-resistant Staphylococcus aureus ATCC 33591 assessed as eradication of viable bacterial cells at 4XMIC incubated for 6 hrs in broth solution followed by culturing for 24 hrs on agar plate by spot plating method; assay type: functional; settings: time 30 hrs
[14] = Induction of hemolysis in human erythrocytes incubated for 1 hr by microtiter plater reader analysis; assay type: toxicity, cell-based, Erythrocyte
[15] = test system: Staphylococcus aureus; experiment: Bactericidal activity against methicillin-resistant Staphylococcus aureus ATCC 33591 incubated for 24 hrs in broth solution followed by culturing for 24 hrs on agar plate by spot plating method; assay type: functional; settings: time 48 hrs
[16] = Renal toxicity in mouse assessed as plasma creatinine level at 12 mg/kg, ip measured after 48 hrs; assay type: organism-based; settings: in vivo
[17] = test system: Staphylococcus aureus; experiment: Potency index, ratio of Vancomycin MIC to test compound MIC for antibacterial activity against Vancomycin-resistant Staphylococcus aureus 1; assay type: functional
[18] = test system: Staphylococcus aureus; experiment: Antibiofilm activity against Methicillin-resistant Staphylococcus aureus ATCC 33591 assessed as log reduction in bacterial viability within the biofilms at 20 uM incubated for 24 hrs in broth solution followed by culturing on agar plate for 24 hrs by spot plating method; assay type: functional; settings: time 48 hrs
[19] = test system: Staphylococcus aureus; experiment: Antibacterial activity against Vancomycin-resistant Staphylococcus aureus 12 assessed as inhibition of bacterial growth incubated for 18 to 24 hrs by CLSI microbroth dilution method; assay type: functional; settings: time 18-24 hrs
[20] = test system: Enterococcus; experiment: Bactericidal activity against Vancomycin-resistant Enterococci assessed as log reduction in bacterial colonies at 2XMIC incubated for 24 hrs in broth solution followed by culturing for 24 hrs on agar plate by spot plating method; assay type: functional; settings: time 48 hrs
[21] = Toxicity in BALB/c mouse assessed as adverse effects at 55.5 mg/kg, iv measured for 4 hrs; assay type: organism-based; settings: in vivo
[22] = test system: Staphylococcus aureus; experiment: Antibacterial activity against Methicillin-resistant Staphylococcus aureus ATCC 33591 persister cells assessed as log reduction in bacterial colonies at 4.5 uM incubated for 24 hrs in broth solution followed by incubation on agar plate for 48 hrs by spot plating method; assay type: functional; settings: time 72 hrs
[23] = test system: HEK293; experiment: Cytotoxicity against human HEK293 cells at 30 uM incubated for 24 hrs by calceinAM/PI staining based fluorescence microscopy; assay type: toxicity, cell-based; settings: hek293, 24 h
[24] = test system: Staphylococcus aureus; experiment: Potency index, ratio of Vancomycin MIC to test compound MIC for antibacterial activity against Vancomycin-resistant Staphylococcus aureus 4; assay type: functional
[25] = test system: Staphylococcus aureus; experiment: Antibacterial activity against Vancomycin-resistant Staphylococcus aureus 1 assessed as inhibition of bacterial growth incubated for 18 to 24 hrs by CLSI microbroth dilution method; assay type: functional; settings: time 18-24 hrs
[26] = Toxicity in BALB/c mouse assessed as animal's survival rate at 55.5 mg/kg, ip measured for 14 days; assay type: organism-based; settings: in vivo, time 14 day
[27] = test system: Staphylococcus aureus; experiment: Antibacterial activity against Methicillin-resistant Staphylococcus aureus ATCC 33591 persister cells assessed as log reduction in bacterial colonies at 9 uM incubated for 24 hrs in broth solution followed by incubation on agar plate for 48 hrs by spot plating method; assay type: functional; settings: time 72 hrs
[28] = test system: Cell membrane; experiment: Induction of Cytoplasmic membrane disruption in Bacillus subtilis 168 assessed as proportion of PI-stained cells at PEC incubated for 10 mins by SYTO9/PI staining based fluorescence microscopy; assay type: subcellular
[29] = test system: Enterococcus; experiment: Potency index, ratio of Vancomycin MIC to test compound MIC for antibacterial activity against Vancomycin-resistant Enterococci NR30903; assay type: functional, NR 30903
[30] = test system: Enterococcus; experiment: Antibacterial activity against Vancomycin-resistant Enterococci ATCC 51575 assessed as inhibition of bacterial growth incubated for 18 to 24 hrs by CLSI microbroth dilution method; assay type: functional; settings: time 18-24 hrs
[31] = test system: Enterococcus; experiment: Bactericidal activity against Vancomycin-resistant Enterococci assessed as log reduction in bacterial colonies at 4XMIC incubated for 6 hrs in broth solution followed by culturing for 24 hrs on agar plate by spot plating method; assay type: functional; settings: time 30 hrs
[32] = test system: Staphylococcus aureus; experiment: Antibacterial activity against stationary phase of Methicillin-resistant Staphylococcus aureus ATCC 33591 assessed as log reduction in bacterial colonies at 4.5 uM incubated for 24 hrs in broth solution followed by incubation on agar plate for 48 hrs by spot plating method; assay type: functional; settings: time 72 hrs

Compound: CCCCCCCCCCNC(=O)C[N+](C)(C)CCCNC(=O)c1ccc(CN[C@@]2(C)C[C@H](O[C@H]3[C@H](Oc4c5cc6cc4Oc4ccc(cc4Cl)[C@@H](O)[C@@H](NC(=O)[C@@H](CC(C)C)NC)C(=O)N[C@@H](CC(N)=O)C(=O)N[C@H]6C(=O)N[C@H]4C(=O)N[C@H](C(=O)N[C@H](C(=O)O)c6cc(O)cc(O)c6-c6cc4ccc6O)[C@H](O)c4ccc(c(Cl)c4)O5)O[C@H](CO)[C@@H](O)[C@@H]3O)O[C@@H](C)[C@H]2O)cc1
- MIC [1]: 0.9 µM
- MIC [2]: 3.6 µM
- Activity [3]: Active
- MIC [4]: 0.9 µM
- inhibition [5]: Active
- Activity [6]: 1.9 log10CFU/ml
- Activity [7]: 1.6 log10CFU/ml
- Activity [8]: 0.8 log10CFU/ml
- Activity [9]: 1.4 log10CFU/ml
- Activity [10]: 5 log10CFU/ml
- Activity [11]: inactive
- MIC [12]: 0.45 µM
- Activity [13]: 100%
- HC50 at 1 h [14]: > 250 µM
- MBC [15]: 0.9 µM
- Activity [16]: 0.38 mg/dL
- Ratio [17]: 1384
- Activity [18]: 2.2 log10CFU/ml
- MIC [19]: 0.9 µM
- Activity [20]: 5 log10CFU/ml
- Activity [21]: Non-Toxic
- Activity [22]: 3.3 log10CFU/ml
- Activity [23]: Non-Toxic
- Ratio [24]: 1384
- MIC [25]: 1.8 µM
- survival at 336 h [26]: 100%
- Activity [27]: 6 log10CFU/ml
- Activity [28]: 5%
- Ratio [29]: 1384
- MIC [30]: 3.6 µM
- Activity [31]: 0.5 log10CFU/ml
- Activity [32]: 2 log10CFU/ml
